Where “and” joins values, the source holds several entries; their conditions need not be identical. Equal values may be shown once.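 Grown in 96-well plates, cells were treated for 48 hours with each compound at five concentrations. Insufficient inhibition: endpoint recorded as highest concentration tested. Abbreviation: GI50, concentration required for 50% inhibition of growth. Definition used: TGI = concentration required for complete inhibition of growth.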
What was measured:
Assay in all cases: growth of human tumour cells (NCI), 48 h
UO-31 renal = test system: UO-31 renal
IGROV1 ovarian = test system: IGROV1 ovarian
MDA-MB-231 breast = test system: MDA-MB-231 breast
OVCAR-4 ovarian = test system: OVCAR-4 ovarian
ACHN renal = test system: ACHN renal
A549 NSCLC = test system: A549 NSCLC
SF-295 CNS = test system: SF-295 CNS
SR leukemia = test system: SR leukemia
K-562 leukemia = test system: K-562 leukemia
HCC-2998 colon = test system: HCC-2998 colon

Row | Structure (SMILES) | GI50 (UO-31 renal) [µM] | GI50 (IGROV1 ovarian) [µM] | TGI (IGROV1 ovarian) [µM] | TGI (MDA-MB-231 breast) [µM] | TGI (OVCAR-4 ovarian) [µM] | GI50 (ACHN renal) | TGI (A549 NSCLC) [µM] | GI50 (SF-295 CNS) [µM] | TGI (SF-295 CNS) [µM] | TGI (SR leukemia) [µM] | TGI (K-562 leukemia) [µM] | TGI (UO-31 renal) [µM] | GI50 (MDA-MB-231 breast) [µM] | GI50 (OVCAR-4 ovarian) [µM] | TGI (ACHN renal) [µM] | GI50 (A549 NSCLC) [µM] | GI50 (HCC-2998 colon) [µM] | TGI (HCC-2998 colon) [µM] | GI50 (SR leukemia) [µM] | GI50 (K-562 leukemia) [µM]
1 | CC[C@@]1(O)C(=O)OCc2c1cc1n(c2=O)Cc2cc3c(OC)cccc3nc2-1 | 0.00535 | > 100 | > 100 | > 100 | 11.9 | 0.00175 µM and < 0.215 µM | 7.59 | 0.00186 | 2.65 | 1.35 | 17.8 | – | – | – | – | – | – | – | – | –
2 | Cc1cc(S(=O)(=O)Nc2n[nH]c(-c3ccc(Cl)cc3)c2C#N)c(S)cc1Cl | > 100 | > 100 | > 100 | > 100 | > 100 | > 100 µM | > 100 | > 100 | > 100 | > 100 | > 100 | > 100 | > 100 | > 100 | > 100 | > 100 | 95.5 | > 100 | > 100 | > 100
3 | O=P1(O)c2ccccc2CSCc2ccccc21 | – | – | > 100 | > 100 | > 100 | – | > 100 | – | > 100 | > 100 | > 100 | > 100 | – | – | > 100 | – | – | > 100 | – | –
4 | COc1ccc(/C=C/C(=O)c2ccc(B(O)O)cc2)cc1O | 16.7 | 12.5 | > 54.4 | > 85 | 40.3 | 22.1 µM | > 76.7 | 15.1 | 56.5 | > 100 | > 100 | > 92.8 | 20.2 | 16.7 | > 84.7 | 14.5 | 6.46 | 18.6 | 3.2 | 2.86
5 | O=C(NCCNc1nccc(-c2c(-c3ccc(F)cc3)nc3sccn23)n1)Nc1cccc(C(F)(F)F)c1 | 2.94 | 4.59 | 20 | 10.1 | 43 | 4.14 µM | 24.5 | 4.28 | 17.6 | 55.3 | > 100 | 16 | 3.28 | 4.74 | 36.7 | 5.51 | 5.21 | 17.7 | 5.4 | 6.14
6 | COC(=O)Nc1nc2ccc(C(=O)C3CC3)cc2[nH]1 | 3.21 | 0.29 | 18.2 | > 46.1 | > 100 | 0.79 µM | > 100 | 0.248 | – | > 100 | > 100 | > 63.1 | 1.28 | 0.551 | > 100 | 0.452 | 0.771 | – | 0.455 | 0.417
7 | CN1CCN(C(=O)OCc2nc3c(N4CCOCC4)nc(-c4ccccc4)nc3n2C)CC1 | 0.377 | 0.632 | 2.03 | 2.37 | 2.65 | 0.544 µM | 4.13 | 1.58 | 2.96 | > 100 | 7.41 | 1.8 | 1.09 | 1.2 | 1.77 | 1.68 | 1.58 | 3.21 | 0.35 | 0.512
8 | N#C/C(=C\c1ccc([N+](=O)[O-])cc1)n1nnc2cc(F)c(F)cc21 | 1.25 | 1.72 | 4 | 4.84 | 2.86 | 1.74 µM | 9.04 | 2.08 | 5.29 | > 100 | > 100 | 2.5 | 1.97 | 1.46 | 3.11 | 2.62 | 1.67 | 3.36 | 1.08 | 3.14
9 | COc1ccc(-c2nc(Nc3ccc(F)cc3)nc(Nc3ccc4c(c3)nc(C)n4Cc3ccccc3)n2)cc1 | 3.53 | 5.41 | > 100 | 18.9 | > 100 | 3.13 µM | > 100 | 3.73 | > 100 | 47.8 | > 100 | > 100 | 3.64 | 1.59 | > 100 | 3.59 | 5.85 | > 100 | 3.49 | 3.44
10 | O=C(NCCCNc1cc(-c2cn(-c3ccccc3)nc2-c2cccc(O)c2)ccn1)c1ccc(F)cc1 | 1.78 | 4.22 | 24.9 | 4.98 | > 100 | 3.36 µM | 20.8 | 1.86 | 4.58 | 6.53 | > 100 | 10.2 | 2.09 | 3.79 | 73.6 | 3.65 | 1.83 | 3.4 | 1.65 | 1.93
11 | OC1CCC(COC(c2ccccc2)(c2ccccc2)c2ccccc2)O1 (stereo not drawn) | – | – | 36.8 | 32.1 | – | – | 37 | – | 31.8 | > 10 | 41.1 | 33.2 | – | – | 31.1 | – | – | 35.6 | – | –
12 | CCOC(=O)c1cc2c(OC)cc(OC)cc2oc1=O | – | – | > 100 | > 100 | > 100 | – | > 100 | – | > 100 | > 100 | > 100 | – | – | – | > 100 | – | – | > 100 | – | –
13 | CC(=O)NS(=O)(=O)c1ccc(-n2nc(-c3ccccc3)cc2-c2cc(O)ccc2O)cc1 | > 100 | > 100 | > 100 | > 100 | – | > 100 µM | > 100 | > 100 | > 100 | > 100 | > 100 | > 100 | 39.2 | – | > 100 | > 100 | – | – | > 100 | > 100
14 | ClCCN(CCCl)c1ccc(OCc2ccccc2)cc1 | 3.99 | 7.03 | 64 | 48.6 | 55.4 | 2.1 µM | 29.8 | 1.79 | > 100 | 15.5 | > 100 | 41.4 | 16.6 | 12 | > 100 | 2.53 | – | – | 0.395 | 7.02
15 | COc1ccc(C(=O)O[C@@H]2CCN3CC[C@H](C)[C@H]23)cc1 | – | – | > 100 | > 100 | – | – | > 100 | – | > 100 | > 100 | – | > 100 | – | – | > 100 | – | – | – | – | –
